Experimental data taken from US8436011B2, “Pyridinopyridinone derivatives, preparation thereof and therapeutic use thereof” (Sanofi, priority 2008, dated 2013).
Read-outs that look alike come from different tables or passages of the source.

How the values were obtained:
[1] = molecular target: T1, FLT3 receptor (MV4-11 cell line bearing an FLT3ITD mutant) (Homo sapiens, UniProt P36888, INS600HVDFREYEYD); experiment: Inhibition of FLT3 receptor tyrosine kinase activity: proliferation of MV4-11 cells (CellTiter-Glo, 72 h); format: cell-based; details: 72 hours incubation, read-out: IC50 (concentration that inhibits 50% of the proliferation of the MV4-11 cells)
T1 construct: MV4-11 cell line, which line is established from a leukaemia of constitutively active AML type bearing an FLT3ITD mutant; endogenous in cells; host or cells: MV4-11
T1 sequence (P36888 with tags, fused parts or gaps INS600HVDFREYEYD): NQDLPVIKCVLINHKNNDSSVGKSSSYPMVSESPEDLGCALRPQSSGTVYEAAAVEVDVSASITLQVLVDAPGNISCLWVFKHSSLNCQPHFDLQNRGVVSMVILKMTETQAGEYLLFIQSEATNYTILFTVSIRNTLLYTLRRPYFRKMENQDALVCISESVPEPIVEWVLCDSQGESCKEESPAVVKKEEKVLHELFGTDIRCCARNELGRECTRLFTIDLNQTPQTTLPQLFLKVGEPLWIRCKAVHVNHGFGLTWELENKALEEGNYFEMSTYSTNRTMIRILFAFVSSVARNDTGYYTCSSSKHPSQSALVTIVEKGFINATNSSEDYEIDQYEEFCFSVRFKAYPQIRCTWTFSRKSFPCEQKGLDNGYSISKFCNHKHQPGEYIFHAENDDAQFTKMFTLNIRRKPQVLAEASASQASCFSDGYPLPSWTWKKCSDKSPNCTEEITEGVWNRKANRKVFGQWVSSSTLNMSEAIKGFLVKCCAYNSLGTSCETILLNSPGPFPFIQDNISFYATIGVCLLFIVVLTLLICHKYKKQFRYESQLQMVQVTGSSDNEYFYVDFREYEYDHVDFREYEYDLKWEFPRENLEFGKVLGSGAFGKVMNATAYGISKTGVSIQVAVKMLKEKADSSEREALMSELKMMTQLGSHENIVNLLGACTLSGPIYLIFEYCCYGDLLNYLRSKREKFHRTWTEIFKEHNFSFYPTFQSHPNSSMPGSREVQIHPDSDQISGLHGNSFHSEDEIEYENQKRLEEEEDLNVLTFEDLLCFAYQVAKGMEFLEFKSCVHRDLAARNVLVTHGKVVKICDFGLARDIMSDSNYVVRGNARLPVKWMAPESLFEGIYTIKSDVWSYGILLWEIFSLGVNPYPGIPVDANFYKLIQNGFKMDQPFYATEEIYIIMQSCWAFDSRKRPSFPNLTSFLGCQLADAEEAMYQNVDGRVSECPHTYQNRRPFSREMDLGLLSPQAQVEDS
Experimental: Measurement of Inhibition of the Tyrosine Kinase Activity of the FLT3 Receptor
The inhibitory effect of the compounds according to the invention towards the tyrosine kinase activity of the FLT3 receptor was evaluated on an MV4-11 cell line, which line is established from a leukaemia of constitutively active AML type bearing an FLT3ITD mutant. The inhibitory activity is correlated to the inhibition of cell growth, according to the protocols described by Spiekermann, K. et al., Blood, 2003, 101, (4) 1494-1504 and O'Farrell, A.-M. et al., Blood, 2003, 101, (9) 3597-3605.
(§1) MV4-11 cells are washed with PBS buffer and inoculated in 96-well plates, at a density of 1×10^5 cells/ml (100 μL per well), in RPMI 1640 containing 10% FCS, in the presence or absence of the test compounds. After incubation for 72 hours, the viable cells are quantified by measuring the cellular ATP by means of the CellTiter-Glo® kit (Promega, Cat G7571). The cells are treated according to the instructions given by the kit manufacturer, and the luminescence is measured using a Luminoskan (Ascent, Labsystem) with the following parameters: measurement: single; integration time: 1000 ms, lag time: 5 s.
The inhibitory activity with respect to the FLT3 receptor is given by the concentration that inhibits 50% of the proliferation of the MV4-11 cells.

[2] = molecular target: T2, fusion protein Tel/PDGF-R (PDGF-Rβ kinase domain) in HEK cells (Homo sapiens, UniProt P09619); experiment: Ex vivo activity: plasma of orally treated mice tested on PDGF-R autophosphorylation in HEK Tel/PDGF-R cells (ELISA); parameters: species or system female Balb/c mice; details: HEK293, mouse, po, 30 mg/kg po, read-out: % inhibition of autophosphorylation of PDGFR tyrosine kinase in HEK cells
T2 construct: the transmembrane and intracellular part of the PDGF-Rβ receptor; N-terminal part of the Tel transcription factor (ETV6); expressed in transfected cells; host or cells: HEK cells (transient transfection); the other entry of the earlier key: ETV6 (P41212, Transcription factor ETV6)
T2 sequence (P09619 with tags, fused parts or gaps): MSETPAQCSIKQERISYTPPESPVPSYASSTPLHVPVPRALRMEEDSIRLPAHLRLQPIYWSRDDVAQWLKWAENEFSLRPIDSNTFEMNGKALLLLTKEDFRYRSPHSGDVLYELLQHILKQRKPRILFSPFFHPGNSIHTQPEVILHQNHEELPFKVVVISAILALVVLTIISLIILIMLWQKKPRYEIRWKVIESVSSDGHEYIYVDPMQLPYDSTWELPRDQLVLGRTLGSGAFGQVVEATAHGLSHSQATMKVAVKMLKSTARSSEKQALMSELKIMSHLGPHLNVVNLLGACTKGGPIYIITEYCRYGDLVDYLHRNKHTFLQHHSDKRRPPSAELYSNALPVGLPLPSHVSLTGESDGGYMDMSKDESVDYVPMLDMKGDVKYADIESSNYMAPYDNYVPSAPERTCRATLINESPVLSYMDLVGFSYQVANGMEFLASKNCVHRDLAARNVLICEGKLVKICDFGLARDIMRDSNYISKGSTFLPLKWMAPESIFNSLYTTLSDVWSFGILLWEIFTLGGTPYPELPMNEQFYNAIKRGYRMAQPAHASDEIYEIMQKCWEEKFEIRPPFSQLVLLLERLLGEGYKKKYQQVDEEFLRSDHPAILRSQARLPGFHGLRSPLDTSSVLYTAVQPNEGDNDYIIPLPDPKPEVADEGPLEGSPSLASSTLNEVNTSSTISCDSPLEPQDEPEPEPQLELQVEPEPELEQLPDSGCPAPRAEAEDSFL
Experimental: Ex vivo activity of the compounds of the invention was measured. These compounds are thus administered orally to female Balb/c mice at a dose of 10, 30 or 100 mg/kg in suspension or in solution in a vehicle such as methylcellulose/Tween and the inhibition of the tyrosine kinase activity is measured in vitro in a cell test, using plasma collected at 15 minutes, 1 hour and 4 hours.
1) Protocol for Administration of the Products to the Mice
The products are prepared in a mortar with 0.5% Tween 80 and 0.6% methylcellulose qs final volume. Depending on the case, preparations of different vehicles may be used: water, mixture of labrasol solutol 5% glucose-water. The suspended or dissolved products are administered by gavage (10 ml/kg) to female Balb/c mice 8 to 15 weeks old.
The animals are then collected at the time given by the protocol (15 min, 1 hour, 4 hours, 16 hours).
The animals are anaesthetized by intraperitoneal injection (10 ml/kg) of a ketamine (0.1 g/kg)-xylazine (20 mg/kg) mixture. […] The blood sample is collected from the vein or the artery using a dry syringe and needle. The blood is immediately transferred into heparin lithium tubes (BD microtainer). Centrifugation for 3 minutes at 12 000 rpm allows recovery of the plasma, on which the biochemical test may be performed after storage by freezing at −20° C.
2) Preparation of the HEK Tel/PDGF-R Cells and Measurement of the Phosphorylation of PDGF-R
In order to detect the ex vivo activity of the products using the mouse plasmas, the HEK cells are transiently transfected beforehand with an expression vector coding for the fusion protein Tel/PDGF-R (fusion protein described previously). After 24 hours of transfection, the cells are deprived of serum overnight and then incubated for 30 minutes with the animal plasmas treated with the products of the invention. The cells are then lysed in RIPA buffer, and detection of the phosphorylation of PDGF-Rβ is then performed via the ELISA technique, using a commercial kit (R&D Systems, DYC1767). The results are expressed as a percentage of inhibition of the autophosphorylation.
In this test of measurement of the ex vivo activity, the effect of the compounds of the invention is quantified by the percentage of inhibition of phosphorylation of the kinase domain of the PDGF-Rβ receptor in HEK cells, induced by the inhibitory activity of the product present in the plasma of the treated animals, as described in the following table: […]

[3] = molecular target: T3, fusion protein Tel/PDGF-Rβ (BaF3 Tel/PDGF cells) (Homo sapiens, UniProt P09619); experiment: Inhibition of PDGF-Rβ tyrosine kinase activity: proliferation of BaF3 Tel/PDGF cells (CellTiter-Glo, 72 h); format: cell-based, murine; details: 72 hours incubation, read-out: IC50 (concentration that inhibits 50% of the proliferation of the BaF3 Tel/PDGF cells)
T3 construct: the transmembrane and intracellular part of the PDGF-Rβ receptor; N-terminal part of the Tel transcription factor (ETV6); expressed in transfected cells; host or cells: murine haematopoietic cell line BaF/3; the other entry of the earlier key: ETV6 (P41212, Transcription factor ETV6)
T3 sequence (P09619 with tags, fused parts or gaps): as above
Experimental: Measurement of Inhibition of the Tyrosine Kinase Activity of the PDGF Beta (PDGF-Rβ) (Baf-3 tel/PDGFIRβ) Receptor:
This test consists in evaluating the effects of the compounds on the tyrosine kinase activity of the PDGF beta receptor.
The inhibitory effect of the compounds according to the invention towards the tyrosine kinase activity of the PDGF-R receptor was evaluated on the murine haematopoietic cell line BaF/3 transfected with a plasmid coding for the fusion protein Tel/PDGF-Rβ. This fusion protein is found in chronic myelomonocytic myeloid leukaemias (CMML). It comprises the N-terminal part of the Tel transcription factor and the transmembrane and intracellular part of the PDGF-Rβ receptor. This fusion protein is present in dimerized form (presence of an oligomerization domain in the N-terminal part of Tel) and, as a result, leads to constitutive activity of the kinase domain of PDGF-Rβ. This line BaF3 Tel/PDGF has been described in the literature several times and especially, in detailed manner, in the article by M. Carroll et al., PNAS, 1996, 93, 14845-14850.
as §1, with “The BaF3 Tel/PDGF” for “MV4-11”, “phosphate” for “PBS”, “5×10^4” for “1×10^5”, “[…]” for “μL”
It is thus seen that the compounds according to the invention have inhibitory activity on the tyrosine kinase activity of PDGF-Rβ. This activity is given by the concentration that inhibits 50% of the proliferation of the BaF3 Tel/PDGF cells (IC50).

| Compound | inhibition at 30 mg/kg ([2]; plasma collected at 15 min) | inhibition at 30 mg/kg ([2]; plasma collected at 1 h) | inhibition at 30 mg/kg ([2]; plasma collected at 4 h) | IC50 [3] | melting point | also measured |
| --- | --- | --- | --- | --- | --- | --- |
| CCn1c(N)c(C(=O)NC)c(=O)c2ccc(-c3ccc(CC(=O)Nc4cccnc4)cc3)nc21 [compound 3, 2-amino-1-ethyl-N-methyl-4-oxo-7-{4-[2-oxo-2-(pyrid-3-ylamino)ethyl]-phenyl}-1,4-dihydro-1,8-naphthyridine-3-carboxamide] |  |  |  |  |  | IC50 [1]: 330 nM |
| CCn1c(N)c(C(=O)NC)c(=O)c2ccc(-c3ccc(CC(=O)Nc4ccccn4)cc3)nc21 [compound 4, 2-amino-1-ethyl-N-methyl-4-oxo-7-{4-[2-oxo-2-(pyrid-2-ylamino)ethyl]-phenyl}-1,4-dihydro-1,8-naphthyridine-3-carboxamide] |  |  |  |  |  | IC50 [1]: 210 nM |
| CCn1c(N)c(C(=O)NC)c(=O)c2ccc(-c3ccc(CC(=O)NC[C@H]4CCCN4CCF)cn3)nc21 [compound 29, 2-amino-1-ethyl-7-{5-[2-({[(2R)-1-(2-fluoroethyl)pyrrolidin-2-yl]methyl}-amino)-2-oxoethyl]pyrid-2-yl}-N-methyl-4-oxo-1,4-dihydro-1,8-naphthyridine-3-carboxamide] |  |  |  | 35 nM |  |  |
| CCn1c(N)c(C(=O)NC)c(=O)c2ccc(-c3ccc(CC(=O)NC[C@H]4CCCN4CC(F)F)cn3)nc21 [compound 34, 2-amino-7-{5-[2-({[(2R)-1-(2,2-difluoroethyl)pyrrolidin-2-yl]methyl}amino)-2-oxoethyl]pyrid-2-yl}-1-ethyl-N-methyl-4-oxo-1,4-dihydro-1,8-naphthyridine-3-carboxamide] | 73% | 64% | 58% |  |  |  |
| CCN1CCCC1CNC(=O)CCCc1ccc(-c2ccc3c(=O)c(C(=O)NC)c(N)n(CC)c3n2)cc1 (stereo not drawn) [compound 47, 2-amino-1-ethyl-7-[4-(4-{[(1-ethylpyrrolidin-2-yl)methyl]amino}-4-oxobutyl)phenyl]-N-methyl-4-oxo-1,4-dihydro-1,8-naphthyridine-3-carboxamide] |  |  |  | 48 nM | 230 °C |  |
| CCCNC(=O)c1c(N)n(CC)c2nc(-c3ccc(CC(=O)NCC4CCCN4CC)cc3)ccc2c1=O (stereo not drawn) [compound 48, 2-amino-1-ethyl-7-[4-(2-{[(1-ethylpyrrolidin-2-yl)methyl]amino}-2-oxoethyl)phenyl]-4-oxo-N-propyl-1,4-dihydro-1,8-naphthyridine-3-carboxamide] |  |  |  | 162 nM | 264 °C |  |

More lines, main results first:

| inhibition at 30 mg/kg ([2]; plasma collected at 15 min) | inhibition at 30 mg/kg ([2]; plasma collected at 1 h) | inhibition at 30 mg/kg ([2]; plasma collected at 4 h) | IC50 [3] | melting point | Compound | also measured |
| --- | --- | --- | --- | --- | --- | --- |
| 58% | 67% | 20% |  |  | CCN1C[C@H](F)C[C@H]1CNC(=O)Cc1ccc(-c2ccc3c(=O)c(C(=O)NC)c(N)n(CC)c3n2)cc1 [compound 26, 2-amino-1-ethyl-7-{4-[2-({[(2S,4R)-1-ethyl-4-fluoropyrrolidin-2-yl]methyl}-amino)-2-oxoethyl]phenyl}-N-methyl-4-oxo-1,4-dihydro-1,8-naphthyridine-3-carboxamide] |  |
| 85% | 68% | 42% |  |  | CCn1c(N)c(C(=O)NC)c(=O)c2ccc(-c3ccc(CC(=O)NC[C@H]4CCCN4CC(F)F)cc3)nc21 [compound 31, 2-amino-7-{4-[2-({[(2R)-1-(2,2-difluoroethyl)pyrrolidin-2-yl]methyl}amino)-2-oxoethyl]phenyl}-1-ethyl-N-methyl-4-oxo-1,4-dihydro-1,8-naphthyridine-3-carboxamide] |  |
|  |  |  | 5.5 nM | 278 °C | CCn1c(N)c(C(=O)NC)c(=O)c2ccc(-c3ccc(CC(=O)NCCCc4ccccc4)cc3)nc21 [compound 41, 2-amino-1-ethyl-N-methyl-4-oxo-7-(4-{2-oxo-2-[(3-phenylpropyl)amino]-ethyl}phenyl)-1,4-dihydro-1,8-naphthyridine-3-carboxamide] |  |
